In patent publication US11852971B2, “Compound, photosensitive resin composition including the same, photosensitive resin layer, color filter and display device” (SAMSUNG SDI CO., LTD., priority 2019, dated 2023):

What was measured:
[1] = Measurement of the shortest wavelength of full width at half maximum (FWHM) with respect to maximum absorption wavelength (absorption spectrum); type: physicochemical; settings: 0.005 wt % in PGMEA; UV-1800
Description: The shortest wavelength of the full width at half maximum (FWHM) with respect to the maximum absorption wavelengths denotes a wavelength having the smallest value (a) among the energy widths (Δλ) of the maximum absorption wavelength (b) in the absorption spectrum of a particular phthalocyanine compound. (Refer to the FIGURE)
Evaluation 1: Measurement of the Shortest Wavelength of Full Width at Half Maximum (FWHM) with respect to Maximum Absorption Wavelength
The compounds according to Synthesis Example 1 to Synthesis Example 21 and Comparative Synthesis Example 1 to Comparative Synthesis Example 6 were prepared at a concentration of 0.005 wt % using a diluting solvent (PGMEA). Absorption spectra were obtained for each of the phthalocyanine compounds according to Synthesis Example 1 to […] and Comparative Synthesis Example 1 to Comparative Synthesis Example 6, and the results are shown in Table 1 (UV-1800, SHTMADZU).

[2] = Solubility measurement in dilution solvent (PGMEA); type: physicochemical; settings: PGMEA added to 0.5 g compound, stirred 100 rpm, one hour, 25° C.
Description: Evaluation 2: Solubility Measurement Solubility of the compounds according to Synthesis Examples 11 to 21 and Comparative Synthesis Examples 1 to 6 were measured by adding a dilution solvent (PGMEA) to 0.5 g of each compound and respectively stirring the mixtures (MIXROTAR VMR-5, Iuchi Seiei Dou Co.) at 100 rpm for one hour at 25° C., and the results are shown in Table 2. Solubility Evaluation Criteria Greater than or equal to 10 wt % of a compound (a solute) based on a total amount of a diluting solvent was dissolved: ∘ Less than 10 wt % of a compound (a solute) based on a total amount of a diluting solvent was dissolved: X

SMILES: CCC(C)c1ccccc1Oc1c(Cl)c(Cl)c2c(c1Cl)C1=NC/2=N\c2c3c(Cl)c(Cl)c(Oc4ccccc4C(C)CC)c(Cl)c3c3[n]2[Zn][n]2/c(c4c(Cl)c(Cl)c(Oc5ccccc5C(C)CC)c(Cl)c4/c2=N/C2=NC(=N\3)/c3c(Cl)c(Oc4ccccc4C(C)CC)c(Cl)c(Cl)c32)=N\1 (stereo not shown) [Comparative Synthesis Example 1, reference compound]
- The shortest wavelength (nm) of full width at half maximum (FWHM) with respect to maximum absorption wavelength [1]: 628 nm
- Solubility [2]: X (Less than 10 wt % of a compound (a solute) based on a total amount of a diluting solvent was dissolved)

SMILES: CC(C)(C)c1ccc(Oc2c(Cl)c(Cl)c3c(c2Cl)C2=NC/3=N\c3c4c(Cl)c(Cl)c(Oc5ccc(C(C)(C)C)cc5C(C)(C)C)c(Cl)c4c4[n]3[Zn][n]3/c(c5c(Cl)c(Cl)c(Oc6ccc(C(C)(C)C)cc6C(C)(C)C)c(Cl)c5/c3=N/C3=NC(=N\4)/c4c(Cl)c(Oc5ccc(C(C)(C)C)cc5C(C)(C)C)c(Cl)c(Cl)c43)=N\2)c(C(C)(C)C)c1 [Comparative Synthesis Example 2, reference compound]
- The shortest wavelength (nm) of full width at half maximum (FWHM) with respect to maximum absorption wavelength [1]: 624 nm
- Solubility [2]: X (Less than 10 wt % of a compound (a solute) based on a total amount of a diluting solvent was dissolved)

SMILES: COc1ccc(Oc2c(Cl)c(Cl)c3c(c2Cl)C2=NC/3=N\c3c4c(Cl)c(Oc5ccc(OC)cc5OC)c(Cl)c(Cl)c4c4[n]3[Zn][n]3/c(c5c(Cl)c(Cl)c(Oc6ccc(OC)cc6OC)c(Cl)c5/c3=N/C3=NC(=N\4)/c4c(Cl)c(Oc5ccc(OC)cc5OC)c(Cl)c(Cl)c43)=N\2)c(OC)c1 [Comparative Synthesis Example 3, reference compound]
- The shortest wavelength (nm) of full width at half maximum (FWHM) with respect to maximum absorption wavelength [1]: 623 nm
- Solubility [2]: X (Less than 10 wt % of a compound (a solute) based on a total amount of a diluting solvent was dissolved)

SMILES: COc1ccc(Oc2c(Cl)c(Cl)c3c4[n]5c(c3c2Cl)/N=C2N=C(/N=c3/c6c(Cl)c(Cl)c(Cl)c(Cl)c6/c([n]3[Zn]5)=N/C3=NC(=N\4)/c4c(Cl)c(Cl)c(Cl)c(Cl)c43)c3c(Cl)c(Cl)c(Cl)c(Cl)c3\2)c(OC)c1 [Comparative Synthesis Example 4, reference compound]
- The shortest wavelength (nm) of full width at half maximum (FWHM) with respect to maximum absorption wavelength [1]: 626 nm
- Solubility [2]: X (Less than 10 wt % of a compound (a solute) based on a total amount of a diluting solvent was dissolved)

SMILES: CC(C)(C)c1ccccc1Oc1c(Cl)c(Cl)c2c(c1Cl)/C1=N/c3c4c(Cl)c(Oc5ccccc5C(C)(C)C)c(Cl)c(Cl)c4c4[n]3[Zn][n]3/c(c5cc(Cl)c(Cl)cc5/c3=N/C2=N1)=N\C1=NC(=N\4)/c2c(Cl)c(Cl)c(Cl)c(Cl)c21 [Comparative Synthesis Example 5, reference compound]
- The shortest wavelength (nm) of full width at half maximum (FWHM) with respect to maximum absorption wavelength [1]: 625 nm
- Solubility [2]: X (Less than 10 wt % of a compound (a solute) based on a total amount of a diluting solvent was dissolved)

SMILES: CC(C)(C)c1ccccc1Oc1c(Cl)c(Cl)c2c(c1Cl)/C1=N/c3c4c(Cl)c(Oc5ccccc5C(C)(C)C)c(Cl)c(Cl)c4c4[n]3[Zn][n]3/c(c5cc(Cl)ccc5/c3=N/C2=N1)=N\C1=NC(=N\4)/c2c(Cl)c(Cl)c(Cl)c(Cl)c21 [Comparative Synthesis Example 6, reference compound]
- The shortest wavelength (nm) of full width at half maximum (FWHM) with respect to maximum absorption wavelength [1]: 623 nm
- Solubility [2]: X (Less than 10 wt % of a compound (a solute) based on a total amount of a diluting solvent was dissolved)

SMILES: CC(C)c1ccccc1Oc1c(Cl)c(Cl)c2c(c1Cl)/C1=N/c3c4c(Cl)c(Oc5ccccc5C(C)C)c(Cl)c(Cl)c4c4[n]3[Zn][n]3/c(c5ccccc5/c3=N/C2=N1)=N\C1=NC(=N\4)/c2c(Cl)c(Cl)c(Cl)c(Cl)c21 [Synthesis Example 1]
- The shortest wavelength (nm) of full width at half maximum (FWHM) with respect to maximum absorption wavelength [1]: 616 nm
- Solubility [2]: ○

SMILES: CC(C)c1ccccc1Oc1c(Cl)c(Cl)c2c(c1Cl)/C1=N/c3c4c(Cl)c(Cl)c(Cl)c(Cl)c4c4[n]3[Zn][n]3/c(c5ccccc5/c3=N/C2=N1)=N\C1=NC(=N\4)/c2c(Cl)c(Cl)c(Cl)c(Cl)c21 [Synthesis Example 2]
- The shortest wavelength (nm) of full width at half maximum (FWHM) with respect to maximum absorption wavelength [1]: 617 nm
- Solubility [2]: ○
